Assay results reported in ChEMBL document CHEMBL4145521, “Regioselective synthesis of 3,4-diaryl-5-unsubstituted isoxazoles, analogues of natural cytostatic combretastatin A4” (Eur J Med Chem, 2018).

Columns and labels:
Assay type in all cases: functional
[1] = system: HOP-62; assay: Cytotoxicity against human HOP62 cells assessed as cell growth at 1 uM incubated for 48 hrs by sulforhodamine B assay relative to control; conditions: HOP-62, 48 h, read-out: Activity
[2] = system: TK-10; assay: Cytotoxicity against human TK10 cells assessed as cell growth at 0.01 uM incubated for 48 hrs by sulforhodamine B assay relative to control; conditions: TK-10, 48 h, read-out: Activity
[3] = system: K562; assay: Cytotoxicity against human K562 cells assessed as cell growth at 10 uM incubated for 48 hrs by sulforhodamine B assay relative to control; conditions: K562, 48 h, read-out: Activity
[4] = system: SNB-19; assay: Cytotoxicity against human SNB19 cells assessed as cell growth at 1 uM incubated for 48 hrs by sulforhodamine B assay relative to control; conditions: SNB-19, 48 h, read-out: Activity
[5] = system: IGROV-1; assay: Cytotoxicity against human IGROV1 cells assessed as cell growth at 1 uM incubated for 48 hrs by sulforhodamine B assay relative to control; conditions: IGROV-1, 48 h, read-out: Activity
[6] = system: T47D; assay: Cytotoxicity against human T47D cells assessed as cell growth at 0.1 uM incubated for 48 hrs by sulforhodamine B assay relative to control; conditions: read-out: Activity
[7] = system: KM12; assay: Cytotoxicity against human KM12 cells assessed as cell growth at 10 uM incubated for 48 hrs by sulforhodamine B assay relative to control; conditions: KM12, 48 h, read-out: Activity
[8] = system: NCI-H23; assay: Cytotoxicity against human NCI-H23 cells assessed as cell growth at 10 uM incubated for 48 hrs by sulforhodamine B assay relative to control; conditions: NCI-H23, 48 h, read-out: Activity
[9] = system: HOP-92; assay: Cytotoxicity against human HOP92 cells assessed as cell growth at 0.01 uM incubated for 48 hrs by sulforhodamine B assay relative to control; conditions: HOP-92, 48 h, read-out: Activity
[10] = system: Malme-3M; assay: Cytotoxicity against human MALME-3M cells assessed as cell growth at 10 uM incubated for 48 hrs by sulforhodamine B assay relative to control; conditions: read-out: Activity
[11] = system: NCI-H226; assay: Cytotoxicity against human NCI-H226 cells incubated for 48 hrs by sulforhodamine B assay; conditions: NCI-H226, 48 h
[12] = system: OVCAR-3; assay: Cytotoxicity against human OVCAR3 cells assessed as cell growth at 1 uM incubated for 48 hrs by sulforhodamine B assay relative to control; conditions: OVCAR-3, 48 h, read-out: Activity
[13] = system: SK-MEL-28; assay: Cytotoxicity against human SK-MEL-28 cells incubated for 48 hrs by sulforhodamine B assay; conditions: SK-MEL-28, 48 h
[14] = system: A549; assay: Cytotoxicity against human A549/ATCC cells assessed as cell growth at 100 uM incubated for 48 hrs by sulforhodamine B assay relative to control; conditions: A549, 48 h, read-out: Activity
[15] = system: UO-31; assay: Cytotoxicity against human UO31 cells assessed as cell growth at 1 uM incubated for 48 hrs by sulforhodamine B assay relative to control; conditions: UO-31, 48 h, read-out: Activity
[16] = system: SK-OV-3; assay: Cytotoxicity against human SKOV3 cells assessed as cell growth at 0.01 uM incubated for 48 hrs by sulforhodamine B assay relative to control; conditions: SK-OV-3, 48 h, read-out: Activity
[17] = system: MDA-MB-231; assay: Cytotoxicity against human MDA-MB-231 cells assessed as cell growth at 1 uM incubated for 48 hrs by sulforhodamine B assay relative to control; conditions: MDA-MB-231, 48 h, read-out: Activity
[18] = system: IGROV-1; assay: Cytotoxicity against human IGROV1 cells assessed as cell growth at 0.01 uM incubated for 48 hrs by sulforhodamine B assay relative to control; conditions: IGROV-1, 48 h, read-out: Activity
[19] = system: EKVX; assay: Cytotoxicity against human EKVX cells assessed as cell growth at 0.1 uM incubated for 48 hrs by sulforhodamine B assay relative to control; conditions: read-out: Activity
[20] = system: K562; assay: Cytotoxicity against human K562 cells incubated for 48 hrs by sulforhodamine B assay; conditions: K562, 48 h
[21] = system: OVCAR-3; assay: Cytotoxicity against human OVCAR3 cells incubated for 48 hrs by sulforhodamine B assay; conditions: OVCAR-3, 48 h
[22] = system: K562; assay: Cytotoxicity against human K562 cells assessed as cell growth at 1 uM incubated for 48 hrs by sulforhodamine B assay relative to control; conditions: K562, 48 h, read-out: Activity
[23] = system: NCI-H522; assay: Cytotoxicity against human NCI-H522 cells assessed as cell growth at 0.01 uM incubated for 48 hrs by sulforhodamine B assay relative to control; conditions: NCI-H522, 48 h, read-out: Activity
[24] = system: HT-29; assay: Cytotoxicity against human HT-29 cells incubated for 48 hrs by sulforhodamine B assay; conditions: HT-29, 48 h
[25] = system: SF-268; assay: Cytotoxicity against human SF268 cells assessed as cell growth at 0.1 uM incubated for 48 hrs by sulforhodamine B assay relative to control; conditions: SF-268, 48 h, read-out: Activity
[26] = system: HL-60(TB); assay: Cytotoxicity against human HL-60(TB) cells assessed as cell growth at 1 uM incubated for 48 hrs by sulforhodamine B assay relative to control; conditions: HL-60, 48 h, read-out: Activity
[27] = system: HOP-92; assay: Cytotoxicity against human HOP92 cells assessed as cell growth at 100 uM incubated for 48 hrs by sulforhodamine B assay relative to control; conditions: HOP-92, 48 h, read-out: Activity
[28] = system: CCRF-CEM; assay: Cytotoxicity against human CCRF-CEM cells assessed as cell growth at 100 uM incubated for 48 hrs by sulforhodamine B assay relative to control; conditions: read-out: Activity
[29] = system: HCC 2998; assay: Cytotoxicity against human HCC2998 cells assessed as cell growth at 0.1 uM incubated for 48 hrs by sulforhodamine B assay relative to control; conditions: HCC 2998, 48 h, read-out: Activity
[30] = system: DU-145; assay: Cytotoxicity against human DU145 cells assessed as cell growth at 0.01 uM incubated for 48 hrs by sulforhodamine B assay relative to control; conditions: DU-145, 48 h, read-out: Activity
[31] = system: SK-MEL-28; assay: Cytotoxicity against human SK-MEL-28 cells assessed as cell growth at 0.01 uM incubated for 48 hrs by sulforhodamine B assay relative to control; conditions: SK-MEL-28, 48 h, read-out: Activity

## COc1ccc(-c2nocc2-c2cc(OC)c(OC)c(OC)c2)cc1
[1]
  growth at 1 µM: 39%
[2]
  growth at 0.01 µM: 90%
[3]
  growth at 10 µM: 9%
[4]
  growth at 1 µM: 36%
[5]
  growth at 1 µM: 47%
[6]
  growth at 0.1 µM: 43%
[7]
  growth at 10 µM: 6%
[8]
  growth at 10 µM: 19%
[9]
  growth at 0.01 µM: 98%
[10]
  growth at 10 µM: 60%
[11]; read-out: GI50
  GI50: 15.5 µM
[11]; read-out: LC50
  LC50: > 100 µM
[11]; read-out: TGI
  TGI: 58.3 µM
[11]; read-out: pGI50 (converted)
  GI50: 15.5 µM
[11]; read-out: pLC50 (converted)
  LC50: > 100 µM
[11]; read-out: pTGI (converted)
  TGI: 58.9 µM
[12]
  growth at 1 µM: 1%
[13]; read-out: GI50
  GI50: 4.96 µM
[13]; read-out: LC50 (the source's name)
  CC50: > 100 µM
[13]; read-out: TGI
  TGI: 80.8 µM
[13]; read-out: pGI50 (converted)
  GI50: 5.01 µM
[13]; read-out: pLC50 (the source's name) (converted)
  CC50: > 100 µM
[13]; read-out: pTGI (converted)
  TGI: 81.3 µM
[14]
  growth at 100 µM: 6%
[15]
  growth at 1 µM: 43%
[16]
  growth at 0.01 µM: 87%
[17]
  growth at 1 µM: 38%
[18]
  growth at 0.01 µM: 97%
[19]
  growth at 0.1 µM: 49%
[20]; read-out: GI50
  GI50: 0.0471 µM
[20]; read-out: LC50
  LC50 (50% lethal concentration): > 100 µM
[20]; read-out: TGI
  TGI: > 100 µM
[20]; read-out: pGI50 (converted)
  GI50: 0.0468 µM
[20]; read-out: pLC50 (converted)
  LC50 (50% lethal concentration): > 100 µM
[20]; read-out: pTGI
  TGI: > 100 µM
[21]; read-out: GI50
  GI50: 0.0386 µM
[21]; read-out: LC50
  LC50 (50% lethal concentration): > 100 µM
[21]; read-out: TGI
  TGI: 1.32 µM
[21]; read-out: pGI50 (converted)
  GI50: 0.0389 µM
[21]; read-out: pLC50 (converted)
  LC50 (50% lethal concentration): > 100 µM
[21]; read-out: pTGI (converted)
  TGI: 1.32 µM
[22]
  growth at 1 µM: 14%
[23]
  growth at 0.01 µM: 84%
[24]; read-out: GI50
  GI50: 0.0365 µM
[24]; read-out: LC50
  LC50: > 100 µM
[24]; read-out: TGI
  TGI: 12 µM
[24]; read-out: pGI50 (converted)
  GI50: 0.0363 µM
[24]; read-out: pLC50 (converted)
  LC50: > 100 µM
[24]; read-out: pTGI (converted)
  TGI: 12 µM
[25]
  growth at 0.1 µM: 63%
[26]
  growth at 1 µM: -17%
[27]
  growth at 100 µM: -21%
[28]
  growth at 100 µM: 4%
[29]
  growth at 0.1 µM: 62%
[30]
  growth at 0.01 µM: 99%
[31]
  growth at 0.01 µM: 94%
